Laboratory results as given in PMC11297040, “Engineering of a mammalian VMAT2 for cryo-EM analysis results in non-canonical protein folding” (Nature Communications, 2024).

How the values were obtained:
[1] = biological target: T1, OaVMAT2WT (Ovis aries, UniProt A0A6P7DBQ8); assay: microscale thermophoresis (RED-Tris-NTA labelled protein); format: binding
T1 construct: gene JEQ12_011695; full-length wild type; N-terminal His10-BRIL-TEV and C-terminal TEV-BRIL-His10 tags, released by TEV cleavage (called His-tagged in MST); Pichia pastoris GS115; DDM; monomer on crosslinking

[2] = biological target: T2, XlVMAT2WT (Xenopus laevis, UniProt A0A1L8FIB7); assay: as above; format: binding
T2 construct: gene LOC108696020; full-length wild type, 514 residues, monomer; N-terminal His10-BRIL-TEV and C-terminal TEV-BRIL-His10 tags, released by TEV cleavage (called His-tagged in MST); Pichia pastoris GS115; DDM

[3] = biological target: T3, HsVMAT2 (Homo sapiens, UniProt Q05940); assay: as above; format: binding
T3 construct: gene SLC18A2; full-length; N-terminal His10-BRIL-TEV and C-terminal TEV-BRIL-His10 tags, released by TEV cleavage (called His-tagged in MST); Pichia pastoris GS115; DDM
From the text: microscale thermophoresis (RED-Tris-NTA labelled protein) on HsVMAT2 | MST fitting curves of SER binding to HsVMAT2 WT and variants as indicated

[4] = biological target: T4, HsVMAT2 (Homo sapiens, UniProt Q05940, D399A); assay: as above; format: binding
T4 construct: gene SLC18A2; full-length; N-terminal His10-BRIL-TEV and C-terminal TEV-BRIL-His10 tags, released by TEV cleavage (called His-tagged in MST); Pichia pastoris GS115; DDM

[5] = biological target: T5, HsVMAT2 (Homo sapiens, UniProt Q05940, L228A); assay: as above; format: binding
T5 construct: gene SLC18A2; full-length; N-terminal His10-BRIL-TEV and C-terminal TEV-BRIL-His10 tags, released by TEV cleavage (called His-tagged in MST); Pichia pastoris GS115; DDM
From the text: (§1) microscale thermophoresis (RED-Tris-NTA labelled protein) on HsVMAT2 | L228A, V232A, E312A, Y341A, D399A and Y433A, reduced their binding affinities for serotonin

[6] = biological target: T6, HsVMAT2 (Homo sapiens, UniProt Q05940, V232A); assay: as above; format: binding
T6 construct: gene SLC18A2; full-length; N-terminal His10-BRIL-TEV and C-terminal TEV-BRIL-His10 tags, released by TEV cleavage (called His-tagged in MST); Pichia pastoris GS115; DDM
From the text: as §1

[7] = biological target: T7, HsVMAT2 (Homo sapiens, UniProt Q05940, Y341A); assay: as above; format: binding
T7 construct: gene SLC18A2; full-length; N-terminal His10-BRIL-TEV and C-terminal TEV-BRIL-His10 tags, released by TEV cleavage (called His-tagged in MST); Pichia pastoris GS115; DDM
From the text: as §1

[8] = biological target: T8, HsVMAT2 (Homo sapiens, UniProt Q05940, Y433A); assay: as above; format: binding
T8 construct: gene SLC18A2; full-length; N-terminal His10-BRIL-TEV and C-terminal TEV-BRIL-His10 tags, released by TEV cleavage (called His-tagged in MST); Pichia pastoris GS115; DDM
From the text: as §1

[9] = biological target: OaVMAT2_(TM8/9-BRIL): sheep (Ovis aries) VMAT2 with the TM8/9 loop replaced by BRIL (Ovis aries | not stated); assay: cryo-EM structure; single-particle analysis of OaVMAT2_(TM8/9-BRIL) in 20 mM Tris-HCl pH 7.5, 150 mM NaCl, 5 mM beta-mercaptoethanol, 0.4 mM DDM; C2 symmetry imposed; 3.2 A
[10] = biological target: OaVMAT2_(TM8/9-BRIL): sheep (Ovis aries) VMAT2 with the TM8/9 loop replaced by BRIL (Ovis aries | not stated); assay: cross-linking; ~10 ug purified protein in 20 mM HEPES-Na pH 7.5, 150 mM NaCl, 5 mM beta-mercaptoethanol, 0.4 mM DDM; glutaraldehyde 4, 2 and 1 mM, 10 min, room temperature; SDS-PAGE

T1 sequence (A0A6P7DBQ8 1-517): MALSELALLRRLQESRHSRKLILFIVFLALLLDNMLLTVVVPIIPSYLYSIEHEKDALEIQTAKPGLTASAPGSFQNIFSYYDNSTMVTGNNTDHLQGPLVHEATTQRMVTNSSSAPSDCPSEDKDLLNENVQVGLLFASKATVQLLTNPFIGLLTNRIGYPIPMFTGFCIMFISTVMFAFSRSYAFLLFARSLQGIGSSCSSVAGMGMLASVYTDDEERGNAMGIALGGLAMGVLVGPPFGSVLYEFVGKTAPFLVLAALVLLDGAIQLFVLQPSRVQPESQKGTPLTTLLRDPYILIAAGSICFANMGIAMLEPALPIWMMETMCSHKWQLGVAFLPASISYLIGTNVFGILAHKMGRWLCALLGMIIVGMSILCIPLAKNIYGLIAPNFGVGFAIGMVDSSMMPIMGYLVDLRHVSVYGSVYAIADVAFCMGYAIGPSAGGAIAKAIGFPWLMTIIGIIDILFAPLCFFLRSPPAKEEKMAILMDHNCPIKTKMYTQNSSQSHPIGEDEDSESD
T2 sequence (A0A1L8FIB7 1-514): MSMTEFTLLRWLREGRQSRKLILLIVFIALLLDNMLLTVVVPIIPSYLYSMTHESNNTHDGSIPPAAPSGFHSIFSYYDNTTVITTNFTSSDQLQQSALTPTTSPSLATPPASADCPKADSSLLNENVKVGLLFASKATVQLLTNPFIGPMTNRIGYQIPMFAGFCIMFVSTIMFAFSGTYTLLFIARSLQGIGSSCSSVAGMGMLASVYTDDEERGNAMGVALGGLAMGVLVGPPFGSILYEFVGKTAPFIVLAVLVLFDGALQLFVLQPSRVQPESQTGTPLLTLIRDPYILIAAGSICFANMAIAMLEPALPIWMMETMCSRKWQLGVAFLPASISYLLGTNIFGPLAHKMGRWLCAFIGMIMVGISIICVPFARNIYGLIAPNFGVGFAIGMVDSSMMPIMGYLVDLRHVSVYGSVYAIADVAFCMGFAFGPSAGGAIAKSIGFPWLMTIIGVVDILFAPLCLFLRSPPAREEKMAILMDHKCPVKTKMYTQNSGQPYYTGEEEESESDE
T3 sequence (Q05940 whole entry): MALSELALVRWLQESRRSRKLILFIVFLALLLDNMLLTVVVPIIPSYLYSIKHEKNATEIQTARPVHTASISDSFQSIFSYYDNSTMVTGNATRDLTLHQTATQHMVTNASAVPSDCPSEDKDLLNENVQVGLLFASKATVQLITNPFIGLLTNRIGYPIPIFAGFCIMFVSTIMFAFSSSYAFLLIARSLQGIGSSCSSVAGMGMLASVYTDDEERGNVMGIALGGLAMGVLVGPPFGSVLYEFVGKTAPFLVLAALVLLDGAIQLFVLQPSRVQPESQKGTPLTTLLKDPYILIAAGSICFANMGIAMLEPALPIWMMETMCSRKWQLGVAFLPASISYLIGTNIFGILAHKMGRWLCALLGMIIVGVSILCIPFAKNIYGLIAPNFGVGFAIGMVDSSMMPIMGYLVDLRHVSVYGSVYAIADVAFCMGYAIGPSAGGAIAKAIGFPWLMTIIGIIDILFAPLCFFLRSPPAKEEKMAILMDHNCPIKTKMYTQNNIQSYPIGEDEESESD
T6 sequence (Q05940 whole entry V232A): as the sequence (Q05940 whole entry) above, with V232A counted along it
T4 sequence (Q05940 whole entry D399A): as the sequence (Q05940 whole entry) above, with D399A counted along it
T8 sequence (Q05940 whole entry Y433A): as the sequence (Q05940 whole entry) above, with Y433A counted along it
T5 sequence (Q05940 whole entry L228A): as the sequence (Q05940 whole entry) above, with L228A counted along it
T7 sequence (Q05940 whole entry Y341A): as the sequence (Q05940 whole entry) above, with Y341A counted along it

| Compound | Kd [1] [nM] | Kd [2] [nM] | Kd [3] [nM] | Kd [4] [nM] | Kd [5] [nM] | Kd [6] [nM] | Kd [7] [nM] | Kd [8] [nM] | stoichiometry N [9] | stoichiometry N [10] |
| --- | --- | --- | --- | --- | --- | --- | --- | --- | --- | --- |
| COC(=O)[C@H]1[C@H]2C[C@@H]3c4[nH]c5cc(OC)ccc5c4CCN3C[C@H]2C[C@@H](OC(=O)c2cc(OC)c(OC)c(OC)c2)[C@@H]1OC [reserpine] | 16 ± 5.7 | 17 ± 8.8 |  |  |  |  |  |  |  |  |
| NCCc1c[nH]c2ccc(O)cc12 [serotonin] | 210 ± 60 | 430 ± 220 | 450 ± 50 | 22100 ± 3600 | 3150 ± 550 | 3850 ± 1610 | 810 ± 220 | 3910 ± 1300 |  |  |
| OaVMAT2_(TM8/9-BRIL): sheep (Ovis aries) VMAT2 with the TM8/9 loop replaced by BRIL |  |  |  |  |  |  |  |  | 2 | 2 |
